From PubChem BioAssay (NCI)
“And” between values parts separate entries of the source, which are not always exact repeats. Equal entries are not always repeated.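 Protocol summary: plate cells (96-well), add compound at 5 concentrations, incubate 48 h, interpolate endpoints linearly. GI50: concentration for 50% inhibition of growth. The concentration for full growth arrest is given as TGI.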

Columns and labels:
Test in all cases: growth of human tumour cells (NCI), 48 h
A549 NSCLC = test system: A549 NSCLC
NCI/ADR-RES ovarian = test system: NCI/ADR-RES ovarian
SK-MEL-5 melanoma = test system: SK-MEL-5 melanoma
SF-268 CNS = test system: SF-268 CNS
MCF7 breast = test system: MCF7 breast
786-0 renal = test system: 786-0 renal
HT29 colon = test system: HT29 colon
NCI-H226 lung = test system: NCI-H226 lung
NCI-H23 lung = test system: NCI-H23 lung
NCI-H522 lung = test system: NCI-H522 lung

Row | SMILES | TGI (A549 NSCLC) | TGI (NCI/ADR-RES ovarian) | TGI (SK-MEL-5 melanoma) | TGI (SF-268 CNS) | TGI (MCF7 breast) | TGI (786-0 renal) | TGI (HT29 colon) | TGI (NCI-H226 lung) | TGI (NCI-H23 lung) | TGI (NCI-H522 lung) | GI50 (A549 NSCLC) [µM] | GI50 (NCI/ADR-RES ovarian) [µM] | GI50 (SK-MEL-5 melanoma) [µM] | GI50 (SF-268 CNS) [µM] | GI50 (MCF7 breast) [µM] | GI50 (786-0 renal) [µM] | GI50 (HT29 colon) [µM] | GI50 (NCI-H226 lung) [µM] | GI50 (NCI-H23 lung) [µM] | GI50 (NCI-H522 lung) [µM]
1 | C(=Nc1cnc2ccccc2c1)c1ccc2ccccc2n1 | > 100 µM | > 100 µM | > 100 µM | > 100 µM | > 100 µM | > 100 µM | > 100 µM | > 100 µM | > 100 µM | > 100 µM | – | – | – | – | – | – | – | – | – | –
2 | O=C(/C=C/C(Cl)(Cl)Cl)Nc1ccc(Cl)cc1 | 8.98 µM | 14 µM | 23.5 µM | 9.82 µM | 34.3 µM | 2.96 µM | 4.03 µM | 36.6 µM | 11.3 µM | 1.43 µM | – | – | – | – | – | – | – | – | – | –
3 | COc1cc(/C=C/C(=O)N2CCC=CC2=O)cc(OC)c1OC | 22.8 µM | 47.9 µM | 12 µM | 12.6 µM | 13.9 µM | 7.03 µM | 9.08 µM | 6.55 µM | 4.03 µM | 3.75 µM | 8.57 | 3.41 | 3.35 | 3.2 | 2.36 | 2.41 | 2.98 | 2.41 | 1.81 | 1.8
4 | O=C(O)c1c(Cl)c(Cl)c(Cl)c(Cl)c1C(=O)Nc1ccc2cn[nH]c2c1 | > 100 µM | > 100 µM | > 100 µM | > 100 µM | > 100 µM | > 100 µM | > 100 µM | > 100 µM | > 100 µM | > 100 µM | – | – | – | – | – | – | – | – | – | –
5 | C/C(=N/O)c1ccc2c(c1)/C(=N/O)c1ccccc1-2 | 62.9 µM | 48.6 µM | 31.2 µM | > 100 µM | 35.8 µM | 38.5 µM | 40.7 µM | 49.7 µM | 34.2 µM | 35.2 µM | 24 | 21 | 17 | 32.2 | 15.3 | 20.5 | 18.2 | 22.2 | 18.3 | 17.9
6 | COc1ccc(Cl)cc1Nc1nc(C(F)(F)F)ccc1C(=O)N/N=C/c1cccnc1 | > 100 µM | > 100 µM | 65.3 µM | 61.5 µM | > 100 µM | > 100 µM | > 100 µM | > 100 µM | > 100 µM | 74.7 µM | 5.49 | 3.8 | 2.64 | 2.52 | 3.51 | 2.63 | 6.01 | 3.49 | 5.34 | 2.47
7 | Cc1ccc(-c2nc3cc(Cl)c(Cl)cc3nc2C#N)cc1 | > 100 µM | > 100 µM | > 100 µM | > 100 µM | > 100 µM | > 100 µM | > 100 µM | > 100 µM | > 100 µM | > 100 µM | > 100 | 81.2 | > 100 | > 100 | > 100 | 47.5 | > 100 | > 100 | > 100 | > 100
8 | O=c1ccc(=O)n(-c2ccccc2)[nH]1 | > 100 µM | > 100 µM | > 100 µM | > 100 µM | > 100 µM | > 100 µM | > 100 µM | > 100 µM | > 100 µM | > 100 µM | – | – | – | – | – | – | – | – | – | –
9 | COc1c(O)cc2c(c1O)C(=O)C1=C(CCCC1)C2=O | 87.3 µM | 51.5 µM | 66 µM | > 100 µM | 80.7 µM | 49.4 µM | 40 µM | > 100 µM | 41.3 µM | 31.8 µM | – | – | – | – | – | – | – | – | – | –
10 | Cc1nc(-c2cnc(NC(C)C)n(C)c2=O)ccc1Oc1ccnc(-c2cnn(C)c2)c1 | > 100 µM | > 100 µM | 19.5 µM | > 100 µM | > 100 µM | > 100 µM | 68 µM | 99.1 µM | > 100 µM | 71.9 µM | 15 | 8.35 | 4.59 | 23 | 5.07 | 25.7 | 5.28 | 14.9 | 13.3 | 5.77
11 | COc1cc(/C=C/C(=O)/C=C/c2cc3ccc(Cl)cc3n(Cc3ccccc3)c2=O)ccc1O | 5.03 µM | > 100 µM | 3.17 µM | 7.47 µM | 12.3 µM | 3.58 µM | 1.68 µM | 4.66 µM | 4.65 µM | 3.5 µM | 2.05 | 2.86 | 1.69 | 2.16 | 0.418 | 1.78 | 0.424 | 2.02 | 1.79 | 1.67
12 | COc1cccc(C2=C(c3cn(C)c4cc(F)ccc34)C(=O)NC2=O)c1 | > 25 µM | > 25 µM | > 21 µM | > 25 µM | > 25 µM | > 25 µM | > 25 µM | > 25 µM | > 25 µM | > 25 µM | > 17.4 | 18.2 | 11 | > 22.2 | 7.56 | > 18.7 | 8.35 | > 18.8 | > 25 | > 15.9
13 | COc1ccc2nc3cc([N+](=O)[O-])ccc3c(NNc3ccccc3)c2c1 | 37.8 µM and > 100 µM | 55.1 µM and > 100 µM | 27.3 µM and 40.7 µM | 30.8 µM and > 100 µM | 19.6 µM and 45.4 µM | 40.4 µM and 44 µM | 29.9 µM and 39.2 µM | 18.1 µM and 7.66 µM | 28.1 µM and > 90.5 µM | 18.5 µM and 50.9 µM | – | 12.8 | 13.2 | 7.35 | 4.34 | – | – | 1.63 | 12.1 | 2.4
14 | NC(Cc1c[nH]c2ccc(F)cc12)C(=O)O (configuration not stated) | > 2500 µM | > 2500 µM | 711 µM | > 2500 µM | > 2500 µM | > 2500 µM | > 2500 µM | > 2500 µM | > 2500 µM | > 2500 µM | 855 | 675 | 375 | 677 | 911 | 1200 | 911 | 626 | 1540 | 1460
